Patent US20220348590A1, “CYCLOOXYGENASE-2 INHIBITORS AND USES THEREOF” (The Board Institute, Inc., priority 2019, published 2022)
Entries after “also recorded” stand apart in the source; their conditions may differ.

Assays:
[1] = PET imaging in non-human primate (baboon); format: in vivo
From the text: This ideal pharmacokinetic profile in non-human primate positions these two optimized lead radiotracers for further evaluation using kinetic modeling with an arterial plasma input function and correction for plasma fraction unbound to obtain total volume of distribution (VT), the gold standard measure for PET quantification.

COX2 [2] = molecular target: T1, COX2 (Rattus norvegicus, UniProt P35355); test: in-vitro autoradiography in rat brain slices (self-block); format: binding; details: rat brain slices in vitro autoradiography, self-block, compared to earlier tracers
T1 construct: in-vitro autoradiography in rat brain slices; from tissue; host or cells: rat brain slices
T1 sequence (P35355 18-604): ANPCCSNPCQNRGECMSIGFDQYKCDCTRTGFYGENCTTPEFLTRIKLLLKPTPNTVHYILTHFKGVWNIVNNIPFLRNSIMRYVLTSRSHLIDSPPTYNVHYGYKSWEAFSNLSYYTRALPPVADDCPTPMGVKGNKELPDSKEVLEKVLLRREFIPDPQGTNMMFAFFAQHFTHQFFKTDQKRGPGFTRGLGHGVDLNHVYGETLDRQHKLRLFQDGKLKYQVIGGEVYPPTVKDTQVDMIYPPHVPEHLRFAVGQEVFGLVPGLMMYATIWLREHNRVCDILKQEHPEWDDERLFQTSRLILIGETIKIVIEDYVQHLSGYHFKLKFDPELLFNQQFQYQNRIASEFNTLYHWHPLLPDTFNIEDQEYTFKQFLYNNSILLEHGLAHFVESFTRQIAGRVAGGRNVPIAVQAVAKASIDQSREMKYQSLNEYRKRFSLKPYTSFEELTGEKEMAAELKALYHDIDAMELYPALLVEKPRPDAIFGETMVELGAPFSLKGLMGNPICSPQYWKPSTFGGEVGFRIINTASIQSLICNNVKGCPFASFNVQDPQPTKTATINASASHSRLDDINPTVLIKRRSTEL
From the text: Three ligands have been evaluated with in-vitro autoradiography in rat brain slices. Radiolabeling was accomplished via methylation of either a sulfinate precursor ([^11C]Rofecoxib), hydroxyl precursor ([^11C]MC1) or thiol precursor ([^11C]98) using [^11C]-methyl iodide and offers chemical flexibility for radiolabeling of future candidates. […] This translated into a ˜2-fold increase in COX2 specific binding in a rat brain slice in-vitro autoradiography. […] These properties enable us to better understand the contribution of potency and free fraction to the ligand's specific binding.
Three newly synthesized COX2 ligands were successfully radiolabeled using this strategy and first evaluated by in-vitro autoradiography in rat brain slices using self-block experiments (FIG. 5). […] [^11C]36 was also evaluated for specific binding using self-block experiments in human post-mortem brain tissues (globus pallidus) from three Huntington's disease (HD) patients (FIG. 6). COX2 protein levels were quantified using immunostaining and defined as high, medium and low, respectively.

COX2 [3] = molecular target: T1, COX2; test: rat in-vivo PET imaging (brain pharmacokinetics, self-block)

SMILES: CS(=O)(=O)c1ccc(-c2cccc(NCc3ccoc3)n2)cc1 [[^11C]47]
- brain uptake and clearance [1]: high, fast and homogeneous brain uptake along with fast clearance; also recorded: high, rapid and homogeneous brain uptake followed by fast clearance
- specific binding (COX2 [2]): significantly increased specific binding
- specific binding in vivo (COX2 [3]; rat PET, self-block experiment, between 30-60 minutes): modest but consistent specific binding
- brain pharmacokinetic (brain uptake and clearance) (COX2 [3]; rat in-vivo PET imaging): high and rapid brain uptake followed by fast clearance
